This is an account of results in PMC8066102, “Metabolic Profiles of New Unsymmetrical Bisacridine Antitumor Agents in Electrochemical and Enzymatic Noncellular Systems and in Tumor Cells” (Pharmaceuticals, 2021).

Where two headings read alike, the source gives them in different places.

One may read the pKa as the negative logarithm of the acid dissociation constant.

The nature of data set [1]: pKa determination by spectrophotometric titration. It counts as physicochemical. The settings on record: 23 aqueous buffer solutions, pH 1.5-11, pH 1.5, 0.02 mM compound, pH 1.5-11, UV-vis, principal component analysis. The method, then:
The concentration of the compounds in the working solutions was 0.02 mM, pH was changed in the range 1.5–11 at 23 buffer solutions: 1.5–3.5 (interval 0.5 unit—HCl solution), 4.0–5.5 (interval 0.5 unit—acetic buffer), 6.1–7.5 (interval 0.2 unit—PIPES (2-[4-(2-sulphoethyl)piperazine-1-ethanesulphonic acid) buffer), 7.7–8.1 (interval 0.2 unit—HEPES (4-(2-hydroxyethyl)piperazine-1-ethanesulphonic acid) buffer) and 9–11 (interval 1 unit—borate buffer).
PKa values for tested UAs were determined by spectrophotometric titration using a Cary 300 Bio instrument. The UV-vis spectra obtained for all solutions in the examined pH range were subjected to the chemometric technique principal component analysis. This procedure makes it possible to determine the number of spectral forms present in the tested samples and to estimate the mole fractions for each of them. To determine pKa values the relationships between the mole fractions of individual spectral forms and the pH of the samples were used. The first approximation of pKa values have been assigned to the values of pH corresponding to the central points of each titration wave. Numerical optimization by the adjustment of pKa values to the obtained molar fractions allowed to refine these values and the cross-validation procedure let to determine their standard deviations.

Data set [2] addresses T1, P4502C19 (Homo sapiens, UniProt P33261).
T1 construct: purchased Cypex, Dundee, Scotland, UK (through Tebu-Bio); host or cells: Escherichia coli (Bactosomes)
Kind of data set: Metabolism with human recombinant P4502C19. The note with it: 0.05 mM compound, 1 mg/mL P4502C19, 2 mM NADPH, 30 min. The data set is classed as in vitro ADME. The method, then: UT-RLMs (2 mg/mL) and P450-RLMs induced with Dex, 3MC, or PB and recombinant P4502C19 and P4503A4 (1 mg/mL) were assayed for activity toward tested UAs as follows. The proteins were incubated in a buffer containing 0.1 M HEPES (pH 7.4), 2 mM MgCl2 with 0.05 mM substrate in total volume 70 µL. Substrates were added also in buffer HEPES, pH 7.4. Reactions were started by the addition of NADPH (2 mM) and were incubated for specified time at 37 °C. The reactions were stopped by the addition of 8.75 µL of 1 M HCl, followed by centrifugation at 13,400 rpm for 10 min to pellet the denatured protein. The supernatant fractions were used for high-performance liquid chromatography (HPLC) analysis. Control reactions omitting substrate were run with each assay. All incubations were performed in two repetitions.

Data set [3] has as its target T2, UGT 1A9 (Homo sapiens, UniProt O60656).
T2 construct: His tag; purchased Corning, NY, USA (through DIAG-MED, Poland); host or cells: baculovirus-insect cells (Supersomes); Results say Sf9 cells
T2 sequence (O60656 26-530): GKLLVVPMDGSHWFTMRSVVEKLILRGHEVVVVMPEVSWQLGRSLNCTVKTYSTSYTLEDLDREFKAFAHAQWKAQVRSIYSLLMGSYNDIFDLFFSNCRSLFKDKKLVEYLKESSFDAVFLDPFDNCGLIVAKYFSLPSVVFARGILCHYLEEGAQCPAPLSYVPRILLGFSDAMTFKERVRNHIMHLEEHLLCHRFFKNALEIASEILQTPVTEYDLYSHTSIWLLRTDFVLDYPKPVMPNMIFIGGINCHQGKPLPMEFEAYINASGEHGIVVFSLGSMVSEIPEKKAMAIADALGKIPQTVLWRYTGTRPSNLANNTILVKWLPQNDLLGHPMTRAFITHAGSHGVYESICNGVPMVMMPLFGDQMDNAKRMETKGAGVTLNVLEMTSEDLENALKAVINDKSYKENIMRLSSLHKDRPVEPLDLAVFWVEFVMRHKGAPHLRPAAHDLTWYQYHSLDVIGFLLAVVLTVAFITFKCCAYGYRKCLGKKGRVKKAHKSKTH
The data set is described as follows: Glucuronidation with recombinant UGT1A9. The data set is classed as in vitro ADME. Details: key: −: the lack of UGT activity; +: the significant UGT activity. The note with it: 0.05 mM compound, 1 mg/mL UGT, 5 mM UDPGA. The method, then:
(§1) Recombinant UGT isoform protein (1 mg/mL) was assayed for activity toward tested UAs as follows. The proteins were incubated in a buffer containing 0.1 M HEPES (pH 7.4), 8 mM MgCl2 and alamethicin (25 μg/mL) with either 0.05 mM substrate in total volume 70 µL (alamethicin was added to permeabilize the membrane). Substrates were also in buffer HEPES, pH 7.4. Reactions were started by the addition of UDPGA (5 mM) and were incubated for specified time at 37 °C. The reactions were stopped by the addition of 8.75 µL of 1 M HCl, followed by centrifugation at 13400 rpm for 10 min to pellet the denatured protein. The supernatant fractions were used for HPLC analysis. Control reactions omitting substrate were run with each assay. All incubations were performed in two repetitions.

The target in data set [4] is T3, UGT2B7 (Homo sapiens, UniProt P16662).
T3 construct: purchased Corning, NY, USA (through DIAG-MED, Poland); host or cells: baculovirus-insect cells (Supersomes)
T3 sequence (P16662 24-529): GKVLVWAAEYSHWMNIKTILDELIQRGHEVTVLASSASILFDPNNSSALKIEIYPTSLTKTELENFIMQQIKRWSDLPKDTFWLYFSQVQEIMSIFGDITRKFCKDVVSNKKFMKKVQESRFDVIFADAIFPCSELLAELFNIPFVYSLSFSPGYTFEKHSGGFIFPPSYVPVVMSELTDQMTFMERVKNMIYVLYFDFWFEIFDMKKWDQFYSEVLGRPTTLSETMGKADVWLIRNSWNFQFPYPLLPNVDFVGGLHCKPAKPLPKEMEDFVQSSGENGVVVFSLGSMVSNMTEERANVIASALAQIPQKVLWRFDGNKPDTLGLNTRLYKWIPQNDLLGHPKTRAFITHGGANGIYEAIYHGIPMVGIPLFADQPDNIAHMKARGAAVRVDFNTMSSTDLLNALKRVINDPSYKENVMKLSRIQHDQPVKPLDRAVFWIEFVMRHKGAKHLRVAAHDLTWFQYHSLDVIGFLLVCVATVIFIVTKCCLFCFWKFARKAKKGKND
The data set is described as follows: Glucuronidation with recombinant UGT2B7. The data set is classed as in vitro ADME. Details: key: −: the lack of UGT activity; +: the significant UGT activity. The settings on record: 0.05 mM compound, 1 mg/mL UGT, 5 mM UDPGA. The method, then: as §1

T1 sequence (P33261 whole entry): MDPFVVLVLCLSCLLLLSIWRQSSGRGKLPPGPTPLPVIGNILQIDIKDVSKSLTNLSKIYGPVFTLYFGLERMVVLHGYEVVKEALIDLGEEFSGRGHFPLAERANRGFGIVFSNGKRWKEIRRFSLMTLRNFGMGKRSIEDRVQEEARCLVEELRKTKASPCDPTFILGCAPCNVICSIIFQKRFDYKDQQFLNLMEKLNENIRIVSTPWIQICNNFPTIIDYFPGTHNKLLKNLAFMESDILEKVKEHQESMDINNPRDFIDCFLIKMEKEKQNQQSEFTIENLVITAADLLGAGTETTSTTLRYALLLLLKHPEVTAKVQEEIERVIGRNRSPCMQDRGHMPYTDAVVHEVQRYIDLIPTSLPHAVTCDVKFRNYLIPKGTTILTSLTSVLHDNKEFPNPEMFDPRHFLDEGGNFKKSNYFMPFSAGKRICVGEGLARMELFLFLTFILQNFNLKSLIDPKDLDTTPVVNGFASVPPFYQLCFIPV

As to `CN(CCCNc1c2ccccc2nc2cccc([N+](=O)[O-])c12)CCCNc1ccc2ncn3c4ccccc4c(=O)c1c23` [C-2028], the pKa came to 2.22 in data set [1] (read-out: pKa 1), 6.01 in data set [1] (read-out: pKa 2) and 7.41 in data set [1] (read-out: pKa 3). The substrate transformed in data set [2] worked out at 59%. Also, the “Glucuronidation potency UGT 1A9” value in data set [3] was “−”. Further, the “Glucuronidation potency UGT 2B7” value in data set [4] is “−”.
Regarding `Cc1ccc([N+](=O)[O-])c2c(NCCCN(C)CCCNc3ccc4ncn5c6ccc(O)cc6c(=O)c3c45)c3ccccc3nc12` [C-2045], the pKa in data set [1] (read-out: pKa 1) was determined as 2.33; in data set [1] (read-out: pKa 2), 6.37; in data set [1] (read-out: pKa 3) it was 7.5. The substrate transformed in data set [2] stood at 11%. Besides, the “Glucuronidation potency UGT 1A9” value in data set [3] was “+”. Further, in data set [4], the “Glucuronidation potency UGT 2B7” value was “−”.
Take `Cc1ccc([N+](=O)[O-])c2c(NCCCN(C)CCCNc3ccc4ncn5c6ccccc6c(=O)c3c45)c3ccccc3nc12` [C-2053]: the pKa in data set [1] (read-out: pKa 1) was 2.19; in data set [1] (read-out: pKa 2) it was 6.19; in data set [1] (read-out: pKa 3), 7.49. Also, the substrate transformed in data set [2] was approximately 64%. For the same compound, the “Glucuronidation potency UGT 1A9” value in data set [3] is “−”. Besides, the “Glucuronidation potency UGT 2B7” value in data set [4] is listed as “−”.
